Laboratory results reported in patent US10570122B2, “Compounds with anti-tumoral activity” (AB Science, priority 2015, dated 2020).
pIC50: −log10 of the molar value.

Tests used:
HEP2 = experiment: CellTiter-Blue cell-based survival/proliferation assay, HEP2; conditions: Homo sapiens, HEp-2; HEP2 head & neck tumor cell line, 48 h
Method: (§1) Cell-Based Proliferation Screening of Compounds
(§2) CellTiter-Blue cell-based survival/proliferation assay (Promega G8080) was performed on tumor cell lines. A total of 1·10^4 cells/well/50 μl were seeded in a 96-wells plate. Treatment was initiated by addition of a 2× drug solution of 1/10 serial dilutions ranging from 0 to 10 μM. Cells were grown for 48 h at 37° C. and then incubated with 10 μl/well of Promega CellTiter-Bleue reagent for 4 h at 37° C. The amount of resorufin dye formed was quantified by its fluorescence emission at 590 nm using a scanning multiwell spectrophotometer (OPTIMA, BMG labtech, France). A blank well without cells was used as a background control for the spectrophotometer.

BXPC3 = experiment: CellTiter-Blue cell-based survival/proliferation assay, BXPC3; conditions: Homo sapiens, BXPC-3; BXPC3 pancreas tumor cell line, 48 h
Method: as §1, §2

DU145 = experiment: CellTiter-Blue cell-based survival/proliferation assay, DU145; conditions: Homo sapiens, DU-145; DU145 prostate tumor cell line, 48 h
Method: as §1, §2

A498 = experiment: CellTiter-Blue cell-based survival/proliferation assay, A498; conditions: Homo sapiens; A498 kidney tumor cell line, 48 h
Method: as §1, §2

[1] = tested on: panel of about 34 human tumor cell lines; experiment: Cell-based proliferation screening on panel of tumor cell lines; conditions: solid tumor cell line, cell line unknown, 48 h, read-out: IC50, solid tumor cell line of column 6 (last section of Table 3)
Method: Compounds of formula (I) were tested against a panel of about 34 human tumor cell lines representing 17 cancer type, namely leukemia (represented by 1 cell line), lymphoma (4 cell lines), myeloma (1 cell line), colorectal (2 cell lines), head and neck (3 cell lines), lung (3 cell lines), melanoma (2 cell lines), pancreas (2 cell lines), prostate (2 cell lines), ovary (2 cell lines) breast (2 cell lines), kidney (2 cell lines), stomach (2 cell lines), liver (2 cell lines), glioblastoma (2 cell lines), osteosarcoma (1 cell line), Ewing Sarcoma (1 cell line).
as §1, §2

TOV112D = experiment: CellTiter-Blue cell-based survival/proliferation assay, TOV112D; conditions: Homo sapiens; TOV112D ovary tumor cell line, 48 h
Method: as §1, §2

AGS = experiment: CellTiter-Blue cell-based survival/proliferation assay, AGS; conditions: Homo sapiens; AGS stomach tumor cell line, 48 h
Method: as §1, §2

CLS354 = experiment: CellTiter-Blue cell-based survival/proliferation assay, CLS354; conditions: Homo sapiens, CLS-354; CLS354_4 head & neck tumor cell line, 48 h
Method: as §1, §2

REC1 = experiment: CellTiter-Blue cell-based survival/proliferation assay, REC1; conditions: Homo sapiens, Lymphoma cell line REC1, 48 h, read-out: Anti-tumoral activity (measured IC50) REC1
Method: as §1, §2

OPM2 = experiment: CellTiter-Blue cell-based survival/proliferation assay, OPM2; conditions: Homo sapiens, OPM-2, Myeloma cell line OPM2, 48 h, read-out: Anti-tumoral activity (measured IC50) OPM2
Method: as §1, §2

BT20 = experiment: CellTiter-Blue cell-based survival/proliferation assay, BT20; conditions: Homo sapiens, BT-20; BT20 breast tumor cell line, 48 h
Method: as §1, §2

PC3 = experiment: CellTiter-Blue cell-based survival/proliferation assay, PC3; conditions: Homo sapiens, PC-3; PC3 prostate tumor cell line, 48 h
Method: as §1, §2

MDAMB231 = experiment: CellTiter-Blue cell-based survival/proliferation assay, MDAMB231; conditions: Homo sapiens, MDA-MB-231; MDAMB231 breast tumor cell line, 48 h
Method: as §1, §2

H1299 = experiment: CellTiter-Blue cell-based survival/proliferation assay, H1299; conditions: Homo sapiens, NCI-H1299; H1299 lung tumor cell line, 48 h
Method: as §1, §2

HEPG2 = experiment: CellTiter-Blue cell-based survival/proliferation assay, HEPG2; conditions: Homo sapiens; HEPG2 liver tumor cell line, 48 h
Method: as §1, §2

HUT78 = experiment: CellTiter-Blue cell-based survival/proliferation assay, HUT78; conditions: Homo sapiens, Lymphoma cell line HUT78, 48 h, read-out: Anti-tumoral activity (measured IC50) HUT78
Method: as §1, §2

SW579 = experiment: CellTiter-Blue cell-based survival/proliferation assay, SW579; conditions: Homo sapiens; SW579 head & neck tumor cell line, 48 h
Method: as §1, §2

PLCPRF5 = experiment: CellTiter-Blue cell-based survival/proliferation assay, PLCPRF5; conditions: Homo sapiens, PLC-PRF-5; PLC_PRF5 liver tumor cell line, 48 h
Method: as §1, §2

HL60 = experiment: CellTiter-Blue cell-based survival/proliferation assay, HL60; conditions: Homo sapiens, HL-60, Leukemia cell line HL60, 48 h, read-out: Anti-tumoral activity (measured IC50) HL60
Method: as §1, §2

MESSA = experiment: CellTiter-Blue cell-based survival/proliferation assay, MESSA; conditions: Homo sapiens, MES-SA; MESSA ovary tumor cell line, 48 h
Method: as §1, §2

HGC27 = experiment: CellTiter-Blue cell-based survival/proliferation assay, HGC27; conditions: Homo sapiens, HGC-27; HGC27 stomach tumor cell line, 48 h
Method: as §1, §2

ACHN = experiment: CellTiter-Blue cell-based survival/proliferation assay, ACHN; conditions: Homo sapiens; ACHN kidney tumor cell line, 48 h
Method: as §1, §2

DLD1 = experiment: CellTiter-Blue cell-based survival/proliferation assay, DLD1; conditions: Homo sapiens, DLD-1; DLD_1 colorectal tumor cell line, 48 h
Method: as §1, §2

A549 = experiment: CellTiter-Blue cell-based survival/proliferation assay, A549; conditions: Homo sapiens; A549 lung tumor cell line, 48 h
Method: as §1, §2

CALU6 = experiment: CellTiter-Blue cell-based survival/proliferation assay, CALU6; conditions: Homo sapiens, Calu-6; CALU6 lung tumor cell line, 48 h
Method: as §1, §2

HCT116 = experiment: CellTiter-Blue cell-based survival/proliferation assay, HCT116; conditions: Homo sapiens, HCT-116; HCT116 colorectal tumor cell line, 48 h
Method: as §1, §2

PANC1 = experiment: CellTiter-Blue cell-based survival/proliferation assay, PANC1; conditions: Homo sapiens, PANC-1; PANC_1 pancreas tumor cell line, 48 h
Method: as §1, §2

KARPAS299 = experiment: CellTiter-Blue cell-based survival/proliferation assay, KARPAS299; conditions: Homo sapiens, KARPAS-299, Lymphoma cell line KARPAS299, 48 h, read-out: Anti-tumoral activity (measured IC50) KARPAS299
Method: as §1, §2

| Structure (SMILES) | pIC50 (HEP2) | pIC50 (BXPC3) | pIC50 (DU145) | pIC50 (A498) | pIC50 [1] | pIC50 (TOV112D) | pIC50 (AGS) | pIC50 (CLS354) | pIC50 (OPM2) | pIC50 (BT20) | pIC50 (PC3) | pIC50 (MDAMB231) | pIC50 (H1299) | pIC50 (HEPG2) | pIC50 (SW579) | pIC50 (PLCPRF5) | pIC50 (HL60) | pIC50 (MESSA) | pIC50 (HGC27) | pIC50 (ACHN) | also measured |
| --- | --- | --- | --- | --- | --- | --- | --- | --- | --- | --- | --- | --- | --- | --- | --- | --- | --- | --- | --- | --- | --- |
| CCOCc1ccc(C)c(Nc2ncc(-c3ccc(-c4nccs4)cc3)o2)c1 [Example 038, (5-Ethoxymethyl-2-methyl-phenyl)-[5-(4-thiazol-2-yl-phenyl)-oxazol-2-yl]-amine] | 6.00 to 6.30 | < 6.00 | < 6.00 | < 6.00 | 6.00 to 6.30 | < 6.00 | < 6.00 | < 6.00 | 6.30 to 7.00 | < 6.00 | < 6.00 | < 6.00 | < 6.00 | < 6.00 | < 6.00 | < 6.00 | 6.30 to 7.00 | < 6.00 | < 6.00 | < 6.00 | pIC50 (REC1): 6.30 to 7.00; pIC50 (HUT78): < 6.00; pIC50 (DLD1): < 6.00; pIC50 (A549): < 6.00; pIC50 (CALU6): < 6.00; pIC50 (HCT116): < 6.00; pIC50 (PANC1): < 6.00; pIC50 (KARPAS299): < 6.00 |
| CCOCc1ccc(C)c(Nc2ncc(-c3ccc(-n4ccc(C)n4)cc3)o2)c1 [Example 039, (5-Ethoxymethyl-2-methyl-phenyl)-{5-[4-(3-methyl-pyrazol-1-yl)-phenyl]-oxazol-2-yl}-amine] | < 6.00 | < 6.00 | < 6.00 | < 6.00 | < 6.00 | < 6.00 | < 6.00 | < 6.00 | < 6.00 | < 6.00 | < 6.00 | < 6.00 | < 6.00 | < 6.00 | < 6.00 | < 6.00 | 6.00 to 6.30 | < 6.00 | < 6.00 | < 6.00 | pIC50 (REC1): 6.00 to 6.30; pIC50 (HUT78): 6.00 to 6.30; pIC50 (DLD1): < 6.00; pIC50 (A549): < 6.00; pIC50 (CALU6): < 6.00; pIC50 (HCT116): < 6.00; pIC50 (PANC1): < 6.00; pIC50 (KARPAS299): 6.00 to 6.30 |
| CCOCc1ccc(C)c(Nc2ncc(-c3ccc(N4C(=O)NC[C@H]4C)cc3)o2)c1 [Example 051, (R)-1-(4-(2-((5-(ethoxymethyl)-2-methylphenyl)amino)oxazol-5-yl)phenyl)-5-methylimidazolidin-2-one] | 6.30 to 7.00 | < 6.00 | < 6.00 | < 6.00 | 6.30 to 7.00 | ≥ 7.00 | < 6.00 | ≥ 7.00 | ≥ 7.00 | < 6.00 | ≥ 7.00 | < 6.00 | < 6.00 | < 6.00 | < 6.00 | < 6.00 | ≥ 7.00 | < 6.00 | < 6.00 | < 6.00 | pIC50 (DLD1): < 6.00; pIC50 (A549): < 6.00; pIC50 (CALU6): < 6.00; pIC50 (HCT116): < 6.00; pIC50 (PANC1): < 6.00 |
| CCOCc1cc(Nc2ncc(-c3ccc(N4CCNC4=O)cc3)o2)cc(OCCO)c1 [Example 059, 1-(4-(2-((3-(ethoxymethyl)-5-(2-hydroxyethoxy)phenyl)amino)oxazol-5-yl)phenyl)imidazolidin-2-one] | ≥ 7.00 | 6.00 to 6.30 | < 6.00 | < 6.00 | ≥ 7.00 | ≥ 7.00 | < 6.00 | ≥ 7.00 | ≥ 7.00 | < 6.00 | ≥ 7.00 | < 6.00 | < 6.00 | < 6.00 | ≥ 7.00 | < 6.00 | ≥ 7.00 | < 6.00 | < 6.00 | < 6.00 | pIC50 (DLD1): < 6.00; pIC50 (A549): < 6.00; pIC50 (CALU6): < 6.00; pIC50 (HCT116): ≥ 7.00; pIC50 (PANC1): < 6.00 |
| CCOCc1ccc(C)c(Nc2ncc(-c3ccc(-n4nccc4C)cc3)o2)c1 [Example 041, (5-Ethoxymethyl-2-methyl-phenyl)-{5-[4-(5-methyl-pyrazol-1-yl)-phenyl]-oxazol-2-yl}-amine] | < 6.00 | < 6.00 | < 6.00 | < 6.00 | 6.30 to 7.00 | 6.30 to 7.00 | < 6.00 | < 6.00 | 6.00 to 6.30 | < 6.00 | < 6.00 | < 6.00 | < 6.00 | < 6.00 | < 6.00 | < 6.00 | 6.00 to 6.30 | < 6.00 | < 6.00 | < 6.00 | pIC50 (DLD1): < 6.00; pIC50 (A549): < 6.00; pIC50 (CALU6): < 6.00; pIC50 (HCT116): < 6.00; pIC50 (PANC1): < 6.00 |
| CCOCc1ccc(C)c(Nc2ncc(-c3ccc(N4CCNC4=O)nc3)o2)c1 [Example 055, 1-(5-(2-((5-(ethoxymethyl)-2-methylphenyl)amino)oxazol-5-yl)pyridin-2-yl)imidazolidin-2-one] | ≥ 7.00 | < 6.00 | < 6.00 | < 6.00 | ≥ 7.00 | ≥ 7.00 | < 6.00 | ≥ 7.00 | ≥ 7.00 | < 6.00 | ≥ 7.00 | < 6.00 | < 6.00 | < 6.00 | ≥ 7.00 | < 6.00 | ≥ 7.00 | < 6.00 | 6.00 to 6.30 | < 6.00 | pIC50 (DLD1): < 6.00; pIC50 (A549): ≥ 7.00; pIC50 (CALU6): < 6.00; pIC50 (HCT116): ≥ 7.00; pIC50 (PANC1): < 6.00 |
| CCOCc1ccc(C)c(Nc2ncc(-c3ccc(N4CCN(CCOC)C4=O)cc3)o2)c1 [Example 054, 1-(4-(2-((5-(ethoxymethyl)-2-methylphenyl)amino)oxazol-5-yl)phenyl)-3-(2-methoxyethyl)imidazolidin-2-one] | < 6.00 | < 6.00 | < 6.00 | < 6.00 | < 6.00 | < 6.00 | < 6.00 | < 6.00 | < 6.00 | < 6.00 | < 6.00 | < 6.00 | < 6.00 | < 6.00 | < 6.00 | < 6.00 | < 6.00 | < 6.00 | < 6.00 | < 6.00 | pIC50 (DLD1): < 6.00; pIC50 (A549): < 6.00; pIC50 (CALU6): < 6.00; pIC50 (HCT116): < 6.00; pIC50 (PANC1): < 6.00 |
